# Data as given in patent US20020035131A1, “Regimen and kit for amelioration of premature ejaculation” (Pentech Pharmaceuticals, Inc., priority 1999, published 2002).
# Values joined by “and” are separate entries in the source; they are usually repeats but may differ in a detail not shown here. Equal entries are not always repeated.
# How the values were obtained:
# [1] = system: normally potent male patients suffering from premature ejaculation; experiment: Example 1 prospective study: ejaculatory latency time (ELT) and frequency of intercourse, dose conversion and continual maintenance regimens; type: in vivo, human; conditions: for mean ELT after treatment: from a mean ELT of less than one minute
# Procedure: The term “premature ejaculation” as used herein refers to ejaculation that occurs within 60 seconds of vaginal intromission. […] The patients were selected on the basis of a having baseline pretreatment ejaculation latency time (“ELT”) of less than about two minutes. An ELT of less than one minute was regarded as severe premature ejaculation dysfunction. In contrast, the average ELT of a normally potent person is about three to about four minutes. The baseline ELT of the patient was determined as the mean of measurements at a minimum of two acts of sexual intercourse prior to commencing treatment using a stopwatch operated by the patient. […] The term “acute” with respect to the dosing means that the patient ingested an oral dose of paroxetine daily after breakfast or lunch for a period of at least one week. The patients were supplied with an ejaculation diary and were asked to record their frequency of coitus, quality of erection and orgasm, and to record their ELT using a stopwatch. The patients were required to attempt coitus on at least two occasions each week at home. In some trials, the patient's partner was also instructed on the use of the stopwatch and asked to record their recollection of the timing of the patient's ejaculation. […] All patients in the study group were heterosexual, had no other sexual disorders and were either married or in a stable relationship. […] The mean age of the 94 patients was 39 years (range 18-61 years). […] Vital signs, such as heart rate, blood pressure and the like were also monitored by the Registered Nurse. […] Of the group, 55 men (59%) had lifelong premature ejaculation, with the remaining 39 men (41%) describing acquired premature ejaculation with previous acceptable ejaculatory control. Of the 55 men with lifelong premature ejaculation, 10 men (18%) had severe lifelong premature ejaculation and had never achieved intravaginal ejaculation. The patients in the study were enrolled into two groups, Group A and Group B. […] Each patient was supplied with an ejaculation diary and instructed to record their frequency of coitus, quality of erection and orgasm, and to measure and record their ejaculatory latency time using a stop-watch. The patients were required to attempt coitus on at least two occasions each week. Statistical analysis: A Student's t-test was used to compare the mean ELT values before and after treatment with paroxetine for each of Groups A and B.
# [2] = system: normally potent male patients suffering from premature ejaculation; experiment: Example 1: incidence of adverse effects; type: in vivo, human
# Source text: All patients in the study group were heterosexual, had no other sexual disorders and were either married or in a stable relationship. The baseline pre-treatment ELT for the group, determined as the mean of measurements from a minimum of two acts of sexual intercourse was 2.2 (range 2-3) as reported by patients prior to commencement of the study using a stop watch operated by the patients.
# Each patient was supplied with an ejaculation diary and instructed to record their frequency of coitus, quality of erection and orgasm, and to measure and record their ejaculatory latency time using a stop-watch. The patients were required to attempt coitus on at least two occasions each week.
# [3] = system: normally potent male patients suffering from premature ejaculation; experiment: Example 2 Study Group 2: single blind cross-over, daily paroxetine then continual maintenance vs placebo (ELT, coitus frequency); type: in vivo, human
# [4] = cited from earlier work
# [5] = system: central β-adrenergic receptors; conditions: unlike sertraline; cited from earlier work
# [6] = Group A-Phase 2: 20 mg continual maintenance dose 3-4 hours prior to intercourse, further four weeks after Phase 1, 53 men
# [7] = Group A-Phase 2: 20 mg continual maintenance, the 36/53 patients
# [8] = Group B: 20 mg continual maintenance dose only, 3-4 hours prior to intercourse, four weeks, 33 men
# [9] = Group B: solely 20 mg continual maintenance, the 14/33 responders
# [10] = Group B: solely 20 mg continual maintenance, the 19/33 non-responders
# [11] = Group A-Phase 1: 20 mg acute daily dosing
# [12] = Group A-Phase 1: 20 mg acute daily dosing, 61 patients
# [13] = Study Group 2-C, week 1: paroxetine 10 mg daily
# [14] = Study Group 2-C, week 2: paroxetine 10 mg daily
# [15] = Study Group 2-C, week 3: paroxetine 10 mg daily
# [16] = Study Group 2-C, week 4: paroxetine 20 mg continual maintenance after three weeks 10 mg daily
# [17] = Study Group 2-C, week 5: paroxetine 20 mg continual maintenance after three weeks 10 mg daily
# [18] = Study Group 2-C, week 6: paroxetine 20 mg continual maintenance after three weeks 10 mg daily
# [19] = Study Group 2-C, week 7: paroxetine 20 mg continual maintenance after three weeks 10 mg daily
# [20] = Study Group 2-D, week 11: paroxetine 10 mg daily, first week after placebo phases and washout
# [21] = Study Group 2-D, week 12: paroxetine 10 mg daily, second week after placebo phases and washout
# [22] = Study Group 2-D, week 13: paroxetine 10 mg daily, third week after placebo phases and washout
# [23] = Study Group 2-D, week 14: paroxetine 20 mg continual maintenance after three weeks 10 mg daily
# [24] = Study Group 2-D, week 15: paroxetine 20 mg continual maintenance after three weeks 10 mg daily
# [25] = Study Group 2-D, week 16: paroxetine 20 mg continual maintenance after three weeks 10 mg daily
# [26] = Study Group 2-D, week 17: paroxetine 20 mg continual maintenance after three weeks 10 mg daily
structure (smiles),measurement,setting,value
"Fc1ccc([C@@H]2CCNC[C@H]2COc2ccc3c(c2)OCO3)cc1 (relative stereo) [paroxetine, trans-(−)-3-(1,3-benzodioxol-5-yloxy)methyl-4-(4-fluorophenyl) piperidine]",patients who achieved and maintained improved ejaculatory control,[1]; Group A overall (36/61): four weeks daily 20 mg followed by conversion to continual maintenance,59%
same,mean Frequency Intercourse Times/Week,"[1]; Group A-Phase 1: 20 mg acute dose daily for four weeks, 61 men",2.4 Times/Week
same,mean ELT,"[1]; Group A-Phase 1: 20 mg acute dose daily, at four weeks, 61 men",4.5 min
same,patients who regarded their ejaculatory control as significantly improved,"[1]; Group A-Phase 1: 20 mg daily for four weeks, 53 of 61 patients",87%
same,ELT of patients with improved ejaculatory control,"[1]; Group A-Phase 1: 20 mg daily, after four weeks, the 53/61 responders",5.1 min
same,mean ELT,"[1]; Group A-Phase 1: 20 mg daily, after one week of treatment",1.1 min
same,mean ELT,"[1]; Group A-Phase 1: 20 mg daily, after two weeks",1.6 min
same,mean ELT of patients without improved control,"[1]; Group A-Phase 1: 20 mg daily, at four weeks, the 8/61 non-responders",0.6 min
same,mean ELT,"[1]; Group A-Phase 1: 20 mg daily, at three weeks",3.5 min
same,frequency of sexual intercourse acts of patients without improved control,"[1]; Group A-Phase 1: 20 mg daily, the 8/61 non-responders",1.7 times/week
same,frequency of sexual intercourse acts of patients with improved ejaculatory control,"[1]; Group A-Phase 1: 20 mg daily, the 53/61 responders",2.5 times/week
same,mean ELT,[1]; [6],3.9 min
same,mean Frequency Intercourse Times/Week,[1]; [6],2.6 Times/Week
same,mean ELT of patients who failed to maintain improved control,"[1]; Group A-Phase 2: 20 mg continual maintenance, at four weeks, the 16/53 men",0.6 min
same,frequency of acts of sexual intercourse/week of patients who failed to maintain improved control,"[1]; Group A-Phase 2: 20 mg continual maintenance, the 16/53 men",2.8 acts of sexual intercourse/week
same,frequency of acts of sexual intercourse/week of patients who maintained improved control,[1]; [7],2.4 acts of sexual intercourse/week
same,mean ELT of patients who maintained improved ejaculatory control,[1]; [7],5.5 min
same,patients who failed to maintain improved ejaculatory control (recurrence of premature ejaculation),"[1]; Group A-Phase 2: after conversion from daily to 20 mg continual maintenance, 16/53",31% and 32%
same,patients who maintained improved ejaculatory control,"[1]; Group A-Phase 2: four weeks 20 mg continual maintenance after four weeks daily, 36/53",69% and 68%
same,mean ELT,[1]; [8],1.5 min
same,mean Frequency Intercourse Times/Week,[1]; [8],2.2 Times/Week
same,patients who regarded their ejaculatory control as significantly improved (fraction of patients),[1]; Group B: solely 20 mg continual maintenance,14/33
same,patients who achieved ejaculatory control,"[1]; Group B: solely 20 mg continual maintenance, 14 of 33",42%
same,frequency of acts of sexual intercourse/week of patients with improved control,[1]; [9],2.4 acts of sexual intercourse/week
same,mean ELT of patients with improved ejaculatory control,[1]; [9],2.7 min
same,frequency of acts of intercourse/week of patients with no change in ejaculatory control,[1]; [10],two
same,mean ELT of patients with no change in ejaculatory control,[1]; [10],0.4 min
same,mean ELT after treatment,[1]; four weeks initial loading and four weeks continual maintenance,greater than 2.5 minutes
same,men achieving intra-vaginal ejaculation for the first time,[1]; men with severe lifelong premature ejaculation who had never achieved intra-vaginal ejaculation (including four in Group B),10/10
same,time to improved ejaculatory control after initiating treatment,[1]; paroxetine oral therapy regimen,1-2 weeks
same,mean ELT after treatment,[1]; solely continual maintenance dosage over about four weeks,at least 1.5 minutes
same,Adverse effects: Total Patients (fraction),[2]; [11],12/61
same,Adverse effects: Total Patients (percent),[2]; [11],20%
same,Adverse Effect: Drowsiness (patients),[2]; [12],1
same,Adverse Effect: Inhibited orgasm (patients),[2]; [12],3
same,Adverse effect: Anejaculation (patients),[2]; [12],5
same,Adverse effect: Anorexia (patients),[2]; [12],1
same,Adverse effect: Gastrointestinal upset (patients),[2]; [12],2
same,Adverse effect: Reduced Libido (patients),[2]; [12],3
same,patients with inhibition of orgasm despite achieving ejaculation (percent),"[2]; Group A-Phase 1: acute treatment with 20 mg paroxetine/day, 3/61",5%
same,patients with anejaculation (percent),"[2]; Group A-Phase 1: acute treatment with 20 mg paroxetine/day, 5/61",8%
same,Adverse effects: Total Patients (fraction),[2]; Group A-Phase 2: 20 mg continual maintenance after conversion,None and 0/53
same,Adverse effects: Total Patients (fraction),[2]; Group B: 20 mg continual maintenance only,None and 0/33
same,Erectile dysfunction,[2]; all patients of Example 1,not reported by any of the patients
same,patients with anejaculation achieving ejaculation with a reduced dose,"[2]; anejaculation on 20 mg/day, reduced dose of 5 mg (n=3) and 10 mg (n=1)",4/5
same,Coitus Frequency/wk,[3]; [13],1.7 /wk
same,Ejaculatory Latency Time,[3]; [13],1.2 min
same,Coitus Frequency/wk,[3]; [14],1.9 /wk
same,Ejaculatory Latency Time,[3]; [14],1.8 min
same,Coitus Frequency/wk,[3]; [15],2.7 /wk
same,Ejaculatory Latency Time,[3]; [15],4.3 min
same,Coitus Frequency/wk,[3]; [16],2.3 /wk
same,Ejaculatory Latency Time,[3]; [16],4.5 min
same,Coitus Frequency/wk,[3]; [17],2.0 /wk
same,Ejaculatory Latency Time,[3]; [17],5.2 min
same,Coitus Frequency/wk,[3]; [18],2.9 /wk
same,Ejaculatory Latency Time,[3]; [18],4.7 min
same,Coitus Frequency/wk,[3]; [19],2.4 /wk
same,Ejaculatory Latency Time,[3]; [19],5.8 min
same,Coitus Frequency/wk,[3]; [20],2.0 /wk
same,Ejaculatory Latency Time,[3]; [20],2.2 min
same,Coitus Frequency/wk,[3]; [21],2.2 /wk
same,Ejaculatory Latency Time,[3]; [21],3.5 min
same,Coitus Frequency/wk,[3]; [22],3.1 /wk
same,Ejaculatory Latency Time,[3]; [22],3.3 min
same,Coitus Frequency/wk,[3]; [23],3.0 /wk
same,Ejaculatory Latency Time,[3]; [23],4.2 min
same,Coitus Frequency/wk,[3]; [24],2.6 /wk
same,Ejaculatory Latency Time,[3]; [24],3.9 min
same,Coitus Frequency/wk,[3]; [25],2.5 /wk
same,Ejaculatory Latency Time,[3]; [25],4.6 min
same,Coitus Frequency/wk,[3]; [26],2.7 /wk
same,Ejaculatory Latency Time,[3]; [26],6.1 min
same,patients achieving intra-vaginal ejaculation for the first time,"[3]; Study Group 2, patients who had never previously achieved it, after two weeks of treatment",all of the five
same,time to steady state systemic levels,[4]; occurring after about,7 to 14 days
same,half life,[4]; reportedly,24 h
same,time to peak plasma levels,[4]; usually achieved within about,2 to 8 h
same,affinity for central β-adrenergic receptors,[5],little affinity
